Test results published in patent US20050019355A1, “Skin antiseptic and disinfectant” (priority 2003, published 2005).

Tested on: E. coli (ATCC 25922)
Test: Lower effective concentration of ethyl lactate, modification of AOAC Method 956.17
Assay type: cell-based
Conditions: 15% solution of ethyl lactate, 10 minutes exposure of E. coli
Experimental: Using a modification of AOAC Method 956.17, the lower effective concentration for ethyl lactate was tested against E. coli (ATCC 25922) at three reaction times at varying concentrations of ethyl lactate. […] [table]

Question: CCOC(=O)C(C)O (stereo not shown) [ethyl lactate] was tested. Which “Bacterial growth after exposure” value did it give?
Answer: eliminated bacterial growth
